In patent publication US5183828A, “Polyhydroxybenzoic acid derivatives” (priority 1990, dated 1993):
Where “and” joins values, the source holds several entries; their conditions need not be identical. Equal values may be shown once. Where a name gives a salt, the structure may show the parent alone.

What was measured:
Colon 38 = assay: activity vs colon 38 (T/C % median tumor weight), Table 5; assay type: in vivo
Procedure: A compound of this invention was also tested on the solid colon tumor model, colon 38. The tumor was implanted subcutaneously and the drug injected intraperitoneally twice a day on day two (seven hours apart) and twice on day nine. The median tumor weight estimated from tumor diameter is the parameter of tumor inhibition and is measured on day 20. The median tumor weight of treated versus control=T/C percent.

[1] = scavenging of generated tyrosine free radical by pulse radiolysis
Procedure: Additional free radical scavenging potential of a compound of this invention was measured on a generated tyrosine free radical. There is evidence that a tyrosine free radical is formed as part of the mammalian ribonucleotide reductase enzyme during the conversion of ribonucleotides to deoxyribonucleotides--see L. Akerblom, et al. Proc. Natl. Acad. Sci. USA, 78, 2159-2163 (1981). The method for the generation of the tyrosine free radical and its destruction by a compound of this invention was accomplished by pulse radiolysis experiments at Brunel University, […] England on the Brunel 4 MeV linear accelerator using a 1.5 cm optical cell and a 200 ns pulse delivering a dose of approximately 1 krad as measured by thiocyanate dosimetry. All solutions were purged with nitrogen using a syringe-deaerating technique prior to use. The detailed description of the methodology can be found in R. L. Willson, Chemistry and Industry, 183-193 (1977).
For the generation of the tyrosine radical, sodium azide was utilized as an intermediate between the pulse radiolysis generated free electron and tyrosine. […] See also I. K. Larsen et al., Eur. J. Biochem, 125, 75-81 (1982).

L-1210 Leukemia = assay: activity vs L-1210 leukemia (T/C % survival time), Table 3; assay type: in vivo, mice; settings: >130 significant
From the text: 3,4-Dihydroxybenzamidoxime and 3,4,5-trihydroxybenzamidoxime were subjected to a further series of tests against various transplanted tumors in mice according to the following protocols:
For L-1210 lymphoid leukemia, 20 grams CDF1 or BDF1 mice […] ip with 10^5 leukemia cells. The drug was given one day after tumor inoculation continued for an additional eight days. The mean survival time for the treated animal was compared to that of the control group. In the table, column 1 gives the name of the compound, column 2 the dose levels, and column 3 treated over control percent survival time. (In other words, a figure of 175 indicates a 75% increase in survival time.)

L1210 leukemia = assay: antitumor activity in L1210 leukemia (percent increase in survival time), Table 2; assay type: in vivo, mice; settings: Mus musculus, L1210, 192 h, 8 days; for ILS at 300 mg/kg: 300 mg/kg ip daily
Procedure: Testing of the compounds of this invention against L-1210 lymphoid leukemia were carried out as follows: L-1210 leukemia was maintained by weekly passage of 10^5 L-1210 cells intraperitoneally into DBA/2 mice. Diluted ascitic fluid, 0.1 ml. (10^5 cells), was administered ip to female B6D2 F1 mice weighing about 20 g. Drugs were administered ip 24 hours after tumor transplantation and injections were continued daily for a total of eight days. A group of control mice receiving only the injection medium were maintained. Table 2 which follows gives the antitumor activity against L-1210 leukemia for certain compounds of this invention. In the table, column 1 gives the name of the compound, column 2 the dose in mg./kg., and column 3 the percent increase in survival time over controls at each dose level.

P388 Leukemia = assay: activity vs P388 leukemia (T/C % survival time), Table 6; assay type: in vivo, mice; settings: five treatments, >130 significant
Procedure: The following protocol was used:
CDF1 mice were injected ip with 10^6 cells The drug was administered in the first day after tumor inoculation and continued daily for five treatments. The mean survival time of the treated group compared to the non-treated control group equals T/C×100=T/C percent.

[2] = test system: arachidonic acid induced ear edema; assay: arachidonic acid induced ear edema assay, Table 10; assay type: in vivo, Mice; settings: Experiment 2, 2 mg total dose, topical
Procedure: The compounds of this invention because of their ability to scavenge free-radicals in vivo are capable of modulating inflammation as set forth in the following protocol: Mice received the test compound topically to each side of the right ear one hr prior to the inflammatory challenge, at which time they were challenged (except for the negative control) with 10 microliter of a 2 mg/20 microliter solution of arachidonic acid applied to each side of the right ear. One hour post-challenge, the animals were sacrificed, the right ears removed, and an 8 mm disc punched from each. These discs were then weighed. The following table gives the results of this experiment.

## NC(=NO)c1ccc(O)c(O)c1 [3,4-dihydroxybenzamidoxime.HCl, 3,4-dihydroxybenzamidoximehydrochloride]
Colon 38; 800 mg/kg ip, twice on day two and twice on day nine
  T/C % (median tumor weight, day 20): 87%
Colon 38; doses lower than 800 mg/kg
  activity at lower doses: ineffective
[1]; pulse radiolysis
  rate constant (tyrosine free radical scavenging): 4.5×10^8 M^-1 S^-1
[1]; vs hydroxyurea
  times faster scavenger of tyrosine free radical than hydroxyurea: ≥ 100 times
L-1210 Leukemia; 25 mg/kg
  t/c % (mean survival time): 130%
L-1210 Leukemia; 50 mg/kg
  t/c % (mean survival time): 137% and 117% and 132% and 146%
L-1210 Leukemia; 100 mg/kg
  t/c % (mean survival time): 128% and 132% and 141% and 133%
L-1210 Leukemia; 200 mg/kg
  t/c % (mean survival time): 175% and 128% and 155% and 186%
L-1210 Leukemia; 300 mg/kg
  t/c % (mean survival time): 113%
L1210 leukemia; 157 mg/kg ip daily
  ILS at 157 mg/kg: 132%
L1210 leukemia; 200 mg/kg ip daily
  ILS at 200 mg/kg: 43.5%
L1210 leukemia; 238 mg/kg ip daily
  ILS at 238 mg/kg: 46.9%
L1210 leukemia
  ILS at 300 mg/kg: 73.9%

## CCOC(=N)c1cc(O)c(O)c(O)c1 [ethyl 3,4,5-trihydroxybenzamidate-HCl, Ethyl 3,4,5-trihydroxybenzamidate hydrochloride]
P388 Leukemia; 12.5 mg/kg daily
  T/C % (mean survival time): 104%
P388 Leukemia; 25 mg/kg daily
  T/C % (mean survival time): 112%
P388 Leukemia; 50 mg/kg daily
  T/C % (mean survival time): 114%
P388 Leukemia; 100 mg/kg daily, listed as ethyl gallamidate.HCl, hydrochloride
  T/C % (mean survival time): 129% and 128%
P388 Leukemia; 200 mg/kg daily, listed as ethyl gallamidate.HCl, hydrochloride
  T/C % (mean survival time): 139% and 123%
P388 Leukemia; 400 mg/kg daily, listed as ethyl gallamidate.HCl, hydrochloride
  T/C % (mean survival time): 149% and 160%
[2]
  Percent Inhibition vs. positive control: 35%
[2]; positive control 19.0 ± 0.5, p = .000
  Mean Increase in Weight of Inflammed Ear (± S.E.): 12.3 ± 0.4 mg
L1210 leukemia
  ILS at 300 mg/kg: 42.3%
L1210 leukemia; 450 mg/kg ip daily
  ILS at 450 mg/kg: 58.4%
